Tests used:
[1] = tested on: splenocytes from HLA-A11/K^b transgenic mice; assay: IFN-γ ELISPOT of peptide-stimulated splenocytes from DNA plasmid-immunized mice; assay type: cell-based, mouse; details: splenocytes of mice immunized i.m. with plasmid pE3/19K/HPV18E6E7, stimulated with the peptide; FIG. 7A
Experimental: (§1) A 96-well plate, having nitrocellulose membrane inserted in each well, was coated with […] anti-IFN-γ antibody (clone MAB1-D1K, 10 μg/ml in 1×PBS, from Mabtech, Macka, Sweden) and was incubated at 4° C. for 24 hours. The plate was washed four times with PBS, and then incubated with […] per well RPMI medium containing 10% fetal bovine serum (FBS) for 1-3 hours. Next, splenocytes were suspended in RPMI containing 10% FBS and 1×10^5 or 5×10^5 splennocytes (200 μl) were added to each well with or without A11VVY. The ELISPOT assay was performed in triplicate wells for each experimental condition. The plate was incubated in an incubator supplied with 5% CO2 at 37° C. for 2 hours. After being washed for 2-3 times, the plate was incubated with avidin-peroxidase complex reagent for one hour at room temperature and then washed three times with 0.05% (w/v) Tween 20 in PBS and three times with PBS. 100 μl aminoethylcarbazole staining solution were then added to each well to develop stained spots. After 4-6 minutes, the plate was washed with running tap water to stop the reaction of developing the spots, which were counted by a computational image analysis.
Plasmid pE3/19K/HPV18E6E7 was constructed following the conventional recombinant technology. This plasmid contains the E3/19K leader sequence and a nucleotide sequence encoding a fusion protein composed of the H-2K^b-restricted CTL epitope SII (derived from ovalbumin) and HPV18E6E7 polypeptide, which includes epitopes VVY, SIP, and ATL.
(§2) Seven to ten days after the second immunization, the mice were sacrificed and their splenocytes collected.
The splenocytes werestimulated with peptide VVY, SII, SIP, ATL, or a control peptide and the levels of IFN-γ secreted thereby were determined with the Enzyme-linked immunospot (ELISPOT) assay described in Example 1 above.

[2] = tested on: ^51Cr-labeled T2/HLA-A11 cells; assay: Chromium release assay with splenocytes from peptide-immunized mice; assay type: in vivo, mouse; details: HLA-A11 transgenic mice immunized twice with the peptide; FIG. 6B
Experimental: (§3) Next, the CTL effect induced by peptide VVY was examined as follows. HLA-A11 transgenic mice were immunized twice with peptide VVY, SIP, or ATL, all of which were derived from HPV 18, following the procedures described above in this Example. Splenocytes (2×10^6/ml) isolated from the immunized mice were cultured with 10 μg/ml of either VVY or A11-SCC and 10 U/ml rIL-2 for at 37+ C. for 5 days. A standard chromium release assay was performed to determine cytolytic activity. In brief, T2/HLA-A11 cells were labeled with 100 μCi of ^51Cr (PerkinElmer, Waltham, Mass., USA) for 1.5 hrs at 37° C. and washed afterwards three times with cold RPMI. The cultured splenocytes, used as effector cells, were mixed with 5×10^3 the ^51Cr-labeled T2/HLA-A11 cells at various ratios in triplicate wells in a U-bottom 96-well plate (Nunc, Rochester, N.Y., USA). After 4-5 hrs incubation, supernatants from each well were collected and the radioactivity contained therein was measured using a γ-counter (PARKARD, Ramsey, Mich., USA). The specific lysis rate was determined following the formula: Specific lysis rate (%)=(Samplecpm−Spontaneous releasecpm)/(Maximum releasecpm−Spontaneous releasecpm)%.

[3] = tested on: T cells of HLA-A24 transgenic mice; assay: IFN-γ secretion of splenocytes from peptide-immunized HLA-A24 transgenic mice; assay type: in vivo, mouse; details: HLA-A24 transgenic mice immunized with peptide; FIG. 5B
Experimental: FIG. 5B is a diagram showing IFN-γ secretion of splenocytes obtained from HLA-A24 transgenic mice immunized with peptide […] (A24 CYE, SEQ ID NO:5) or a control peptide.
as §1

[4] = tested on: HLA A24 heavy chain and β2-microglobulin; assay: MHC-peptide complex formation assay (ELISA), HLA A24; assay type: binding
Experimental: The HLA A24 heavy chain and β2-microglobulin were expressed and purified following the method described above. These proteins were incubated with synthetic peptides containing potential CTL-epitopes identified by the computational programs mentioned in Example 1. The formation of HLA A24-β2-peptide complexes was determined by the ELISA assay also described in Example 1 above.

[5] = tested on: ^51Cr-labeled T2/HLA-A11 cells; assay: Chromium-release assay, peptide-specific CTL effects after DNA plasmid immunization; assay type: cell-based, mouse; details: mice immunized with plasmid pE3/19K/HPV18E6E7; FIG. 7B
Experimental: as §3, §2
Next, peptide-specific CTL effects were examined by the chromium-release assay described in Example 4 above.

[6] = tested on: CD8^+ T cells of C57BL/6-HLA-A11 transgenic mice; assay: HLA-A11-peptide tetramer staining of CD8+ T cells from peptide-immunized mice; assay type: in vivo, mouse; details: HLA-A11 transgenic mice immunized s.c. twice; splenocytes cultured 5 days with peptide and rIL-2; FIG. 6A
Experimental: C57BL/6-HLA-A11 transgenic mice were immunized s.c. twice with peptide VVY (SEQ ID NO:1) or control peptide SSC (SEQ ID NO:12) together with a T helper cell epitope […] (SEQ ID NO:17), and incomplete adjuvant ISA-51. Seven days after the second immunization, splenocytes were harvested from the immunized mice, cultivated in vitro in the presence of peptide VVY or SSC (10 μg/ml) and rIL-2 (10 U/ml) for five days. The cells were then double stained with HLA-A11-peptide tetramer VVY-tet-PE or SCC-tet-PE and a FITC-conjugated anti-CD8 antibody to detect CD8^+ T cells that bind to either VVY or SSC.
The tetramers were prepared as follows. Purified HLA-A11 heavy chains and β2-microglobulins were refolded in the presence of VVY or SSC in a refolding buffer containing 100 mM Tris-HCl (pH 8), 400 mM L-arginine, 2 mM EDTA, 5 mM reduced glutathione, 0.5 mM oxidized glutathione for 48 hrs at 4° C. […]
The tetramers thus prepared were incubated with the peptide-challenged T cells in a FACS staining buffer for 20 min at room temperature and a FITC conjugated anti-CD8 antibody was then added to the incubation system and kept on ice for 20 min. The stained cells were analyzed by flow cytometry (FACScalibur BD Bioscience, Calif., USA) in the presence of 1 μg/ml of propidium iodide (Sigma, Mo., USA) to exclude dead cells.

[7] = tested on: splenocytes from C57BL/6-HLA-A11 transgenic mouse; assay: IFN-γ ELISPOT of splenocytes from peptide-immunized HLA-A11 transgenic mouse; assay type: in vivo; details: HLA-A11 transgenic mouse immunized s.c. with peptide, ISA-51 and T helper epitope; FIG. 5A
Experimental: C57BL/6-HLA-A11 transgenic mouse, derived from the Animal Technology Institute in Taiwan, was used in this study. 50 μg synthetic peptides having the amino acid sequence of […] (A11VVY; SEQ ID NO:1) were formulated with incomplete adjuvant ISA-51 in the presence of a peptide […] (SEQ ID NO:17), which contains a T helper cell epitope derived from hepatitis B virus. The composition thus formed was injected subcutaneously into the HLA-A11 transgenic mouse two times every two weeks. Seven days after the final injection, splenotyes from the immunized mouse were isolated and cultured in a medium containing A11VVY. The level of IFN-γ secreted to the medium was determined by Enzyme-linked immunospot (ELISPOT) as described below.
A 96-well plate, having nitrocellulose membrane inserted in each well, was coated with […] anti-IFN-γ antibody (clone MAB1-D1K, 10 μg/ml in 1×PBS, from Mabtech, Macka, Sweden) and was incubated at 4° C. for 24 hours. The plate was washed four times with PBS, and then incubated with […] per well RPMI medium containing 10% fetal bovine serum (FBS) for 1-3 hours. […] After 4-6 minutes, the plate was washed with running tap water to stop the reaction of developing the spots, which were counted by a computational image analysis.

[8] = target: HLA A11 heavy chain (His-Tag fusion) with β2-microglobulin (human); assay: MHC-peptide complex formation assay, ELISA; relative to positive and negative control O.D.

## ATLQDIVLH (listed as Human papillomavirus) [peptide derived from HPV 18]
[1]
  induction of IFN-γ secretion: not
[2]
  CTL effects (specific lysis): not

## CYEQLGDSS (listed as Human papillomavirus) [24-32 of HPV 52 E7]
[3]
  IFN-γ secretion by peptide-specific T cells: incuded A24CYE-specific T cells to secrete IFN-γ
[4]
  HLA A24 restriction (HLA A24-β2-peptide complex formation): HLA A24 restricted epitopes

## RAHYNIVTF (listed as Human papillomavirus) [control peptide]
[1]
  induction of IFN-γ secretion: not
[5]
  peptide-specific CTL effects: not

## SIINFEKL (listed as Mus musculus)
[1]
  induction of IFN-γ secretion: induced IFN-γ secretion
[5]
  peptide-specific CTL effects: not

## SIPHAACHK (listed as Human papillomavirus) [peptide derived from HPV 18]
[1]
  induction of IFN-γ secretion: not
[2]
  CTL effects (specific lysis): not

## SSCSSCPLSK (listed as Human herpesvirus) [A11-SCC, positive control A11-restricted peptide derived from EBV LMP2 protein]
[6]
  induction of VVY-specific CD8^+ T cells (tetramer staining): did not show this effect

## VDLLCHEQL (listed as Human papillomavirus) [23-31 of HPV 18 E7]
[4]
  HLA A24 restriction (HLA A24-β2-peptide complex formation): HLA A24 restricted epitopes

## VVYRDSIPH (listed as Human papillomavirus) [54-62 of HPV 18 E6]
[1]
  induction of IFN-γ secretion: induced IFN-γ secretion
[7]
  IFN-γ secreting splenocytes: large amount
[5]
  peptide-specific CTL effects: induced CTL effects
[6]
  induction of VVY-specific CD8^+ T cells (tetramer staining): induced VVY-specific CD8^+ T cells
[2]
  CTL effects (specific lysis): induced CTL effects

## WLSLLVPFV [A2-restricted peptide, used as control peptide for immunization]
[7]
  IFN-γ secreting splenocytes: little

## … (54-62 of HPV 18 E6) (peptide)
[8]
  relative binding %: 30%

## … (64-72 of HPV 52 E6) (peptide)
[8]
  relative binding %: 30%

## … (94-102 of HPV 58 E6) (peptide)
[8]
  relative binding %: 30%

Source: patent US20090117123A1, “IMMU[…] HPV E6 AND E7 PROTEINS” (National Health Research Institutes, priority 2007, published 2009)
